From paper PMC6096483, “Structural studies of the unusual metal-ion site of the GH124 endoglucanase from Ruminiclostridium thermocellum” (Acta Crystallographica. Section F, Structural Biology …, 2018) come the findings set out here.

For the assay, the target named is T1, RtGH124 (GH124 endoglucanase GH124A) (Acetivibrio thermocellus, UniProt A3DCJ4).
T1 construct: gene Cthe_0435; GH124 catalytic domain without dockerin; E. coli BL21(DE3)pLysS; N-terminal His6-3C tag cleaved, leaving GPA before […]; ends ...DRSNPWEIYY; 25304 Da calculated; His264 partially 2-oxohistidine
T1 sequence (A3DCJ4 entry or part of it): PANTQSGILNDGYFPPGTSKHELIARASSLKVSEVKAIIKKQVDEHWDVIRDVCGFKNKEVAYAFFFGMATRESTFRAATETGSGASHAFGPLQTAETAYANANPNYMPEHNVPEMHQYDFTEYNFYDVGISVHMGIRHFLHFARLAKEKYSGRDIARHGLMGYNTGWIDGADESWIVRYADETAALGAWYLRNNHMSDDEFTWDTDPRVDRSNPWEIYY
Put plainly: X-ray crystallography (co-crystallization, […] A). Format: binding. The conditions noted are these: active site, two cellotrioses on either side of catalytic Glu203; Mn2+ at distant metal site; Tacsimate pH 5.0; 6.7 mM ligand.

As to `OC[C@H]1O[C@@H](O[C@H]2[C@H](O)[C@@H](O)[C@H](O[C@H]3[C@H](O)[C@@H](O)C(O)O[C@@H]3CO)O[C@@H]2CO)[C@H](O)[C@@H](O)[C@@H]1O` (stereo partly shown) [G3, cellotriose], the “X-ray crystallography (co-crystallization, 1.03 A)” value is recorded as “Structures of RtGH124 co-crystallized with cellotriose (G3) showed an active site with two cellotrioses”.
